According to PMC4304654 (Bioorganic & medicinal chemistry, 2012):
Values after ≈ are worked out from the molar mass of the structure shown.

How the values were obtained:
[1] = mouse plasma; previously reported data ref 7; cited from earlier work
[2] = biological target: K18 tau fragment (amino acids 244–369) bearing the P301L mutation (K18PL) (Homo sapiens, UniProt P10636, P618L); details: 50 μM compound concentration; previously reported data ref 7; cited from earlier work
[3] = mice, 1 h after 5 mg/kg i.p.; previously reported data ref 7; cited from earlier work
[4] = cited from earlier work
[5] = cited from earlier work; remark: listed apart in the source
[6] = Aqueous solubility in the sodium acetate buffer of the fibrillization assay; format: physicochemical
in vivo = details: female, mouse, 50 mg/kg/day, Calculated free compound level in brain, mice, 3 days of dosing via drinking water at 50 mg/kg/day
[7] = Full PK evaluation and oral bioavailability of 43; format: in vivo, B6C3F1 mice; details: mice, 5 mg/kg i.p., 0.5–16 h post-dosing
mice [8] = details: mouse, in vivo, 100 mg/kg
mice [9] = details: mouse, in vivo, 50 mg/kg/day
[10] = mice, 3 days of dosing via drinking water at 50 mg/kg/day

Sequence of K18 tau fragment (amino acids 244–369) bearing the P301L mutation (K18PL) (P10636 561-686 P618L): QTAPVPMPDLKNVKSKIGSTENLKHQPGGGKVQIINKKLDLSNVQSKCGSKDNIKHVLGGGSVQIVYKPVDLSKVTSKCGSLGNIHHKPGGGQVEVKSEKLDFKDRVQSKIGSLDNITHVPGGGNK

Nc1scc2c(C(=O)NC3CC3)nn(-c3ccc(Cl)cc3)c(=O)c12 [Compound 1, 5-Amino-3-(4-chlorophenyl)-N-cyclopropyl-4-oxo-3,4-dihydrothieno[3,4-d]pyridazine-1-carboxamide]
Fu (%) plasma, fraction unbound [1]: 1.9 ± 0.2% | K18PL centrifugation assay % Soluble [2]: 69% | B/P (fu), ratio of free drug in brain and plasma [3]: 0.92 ±0.16 | B/P (total), brain-to-plasma ratio [3]: 1.61 ± 0.28 | Brain level [3]: 1300 ± 110 ng/g | Plasma level [3]: 820 ± 150 ng/mL | Bound in brain homogenates ([4]; equilibrium dialysis): ~ 99% | Fu (%) brain, fraction unbound ([4]; mouse brain homogenate, previously reported data ref 7): 1.1 ± 0.6% | Solubility in assay buffer, upper solubility limit ([5]; sodium acetate fibrillization assay buffer, previously reported data ref 7): 32 µM (≈ 11.5 µg/mL) | Water solubility ([5]; text of introduction): ~ 30 μM

Nc1scc2c(C(=O)NC3CC3)nn(-c3ccc(F)cc3)c(=O)c12 [Compound 43, 5-Amino-N-cyclopropyl-3-(4-fluorophenyl)-4-oxo-3,4-dihydrothieno[3,4-d]pyridazine-1-carboxamide]
solubility [6]: > 200 µM | concentration at 3 days (in vivo): 6 ± 0.4 nM | Calculated free compound level in brain [10]: 6 nM | Total brain levels [10]: ~ 140 nM | Plasma and brain levels after 30 days versus 3 days in drinking water (mouse, in vivo, 50 mg/kg/day): comparable | Brain exposure [7]: good brain exposure | Signs of toxicity after a single oral administration (mice [8]): only mild and transient lethargy | Adverse events (mice [9]): no visible adverse events | Amount of water consumed (mice [9]): normal | Blood cell counts (mice [9]): no alterations in any blood cell counts | Tolerability (mice [9]; po): well-tolerated with no notable side-effects
